Holding throughout (assay): R-SAT broad profiling
What all share (type): cell-based

The target in one assay is T1, Histamine 2 (Homo sapiens, UniProt P25021).
T1 construct: expressed in transfected cells; host or cells: NIH3T3
The conditions noted are these: read-out: pEC50/pIC50 (converted). As to the method: (§1) The functional receptor assay, Receptor Selection and Amplification Technology (R-SAT), was used (with minor modifications from that previously described U.S. Pat. No. 5,707,798) to screen compounds for efficacy at the 5-HT2A receptor. Briefly, NIH3T3 cells were grown in 96 well tissue culture plates to 70-80% confluence. Cells were transfected for 12-16 hours with plasmid DNAs using superfect (Qiagen Inc.) as per manufacture's protocols. R-SAT's were generally performed with 50 ng/well of receptor and 20 ng/well of Beta-galactosidase plasmid DNA. All receptor and G-protein constructs used were in the pSI mammalian expression vector (Promega Inc) as described in U.S. Pat. No. 5,707,798. The 5HT2A receptor gene was amplified by nested PCR from brain cDNA using the oligodeoxynucleotides based on the published sequence (see Saltzman et. al. Biochem. Biophys. Res. Comm. 181:1469-78 (1991)). Large-scale transfections, cells were transfected for 12-16 hours, then trypsinized and frozen in DMSO. Frozen cells were later thawed, plated at 10,000-40,000 cells per well of a 96 well plate that contained drug. With both methods, cells were then grown in a humidified atmosphere with 5% ambient CO2 for five days. Media was then removed from the plates and marker gene activity was measured by the addition of the beta-galactosidase substrate ONPG (in PBS with 5% NP-40). The resulting colorimetric reaction was measured in a spectrophotometric plate reader (Titertek Inc.)at […]. All data were analyzed using the computer program XLFit (IDBSm). Efficacy is the percent maximal repression compared to repression by a control compound (ritanserin in the case of 5HT2A). pIC50 is the negative of the log(IC50), where IC50 is the calculated concentration in Molar that produces 50% maximal repression.
(§2) The R-SAT assay (described above in example 136) was used to investigate the selectivity of 2-(4-Methoxyphenyl)-N-(4-methylbenzyl)-N-(1-methylpiperidin-4-yl)acetamide hydrochloride.

The next assay addresses T2, 5-HT6 (Homo sapiens, UniProt P50406).
T2 construct: expressed in transfected cells
The conditions noted are these: read-out: pEC50/pIC50 (converted). The procedure: as §1, §2

A further assay concerns the target T3, D5 (Homo sapiens, UniProt P21918).
T3 construct: expressed in transfected cells; host or cells: NIH3T3
The note with it: read-out: pEC50/pIC50 (converted). As to the method:
as §1, §2

A further assay concerns the target T4, NK-1 (Homo sapiens, UniProt P25103).
T4 construct: expressed in transfected cells; host or cells: NIH3T3
The conditions noted are these: agonist; read-out: pEC50/pIC50 (converted). As to the method:
as §1, §2

The target in another assay is T5, K-opiod (Homo sapiens, UniProt P41145).
T5 construct: expressed in transfected cells; host or cells: NIH3T3
T5 sequence (P41145 whole entry): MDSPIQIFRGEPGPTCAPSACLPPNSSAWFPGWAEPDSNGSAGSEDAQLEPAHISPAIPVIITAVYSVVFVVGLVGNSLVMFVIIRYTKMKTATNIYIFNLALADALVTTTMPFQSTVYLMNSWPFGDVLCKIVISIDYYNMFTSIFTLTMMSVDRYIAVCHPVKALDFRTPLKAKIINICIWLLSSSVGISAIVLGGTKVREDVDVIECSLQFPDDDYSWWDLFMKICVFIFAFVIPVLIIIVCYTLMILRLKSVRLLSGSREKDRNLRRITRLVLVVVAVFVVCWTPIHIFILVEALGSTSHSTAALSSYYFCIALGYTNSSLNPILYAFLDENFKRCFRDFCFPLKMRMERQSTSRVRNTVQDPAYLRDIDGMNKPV
The conditions noted are these: agonist; read-out: pEC50/pIC50 (converted). As to the method: as §1, §2

For a further assay, the target named is T6, alpha 2B (Homo sapiens, UniProt P18089).
T6 construct: expressed in transfected cells; host or cells: NIH3T3
T6 sequence (P18089 1-450): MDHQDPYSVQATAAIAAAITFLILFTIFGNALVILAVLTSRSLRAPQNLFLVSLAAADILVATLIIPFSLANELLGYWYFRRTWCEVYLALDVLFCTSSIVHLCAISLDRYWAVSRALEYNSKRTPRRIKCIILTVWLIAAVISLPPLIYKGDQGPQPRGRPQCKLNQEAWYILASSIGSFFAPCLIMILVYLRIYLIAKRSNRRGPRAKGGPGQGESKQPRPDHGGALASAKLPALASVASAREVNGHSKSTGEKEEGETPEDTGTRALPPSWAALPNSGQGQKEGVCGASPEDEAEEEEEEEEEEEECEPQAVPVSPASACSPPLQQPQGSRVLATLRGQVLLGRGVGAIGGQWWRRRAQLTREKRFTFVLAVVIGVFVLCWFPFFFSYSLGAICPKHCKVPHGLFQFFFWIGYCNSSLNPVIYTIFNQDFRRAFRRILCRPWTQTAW
The conditions noted are these: read-out: pEC50/pIC50 (converted). The procedure:
as §1, §2

For another assay, the target named is T7, m3 (Homo sapiens, UniProt P20309).
T7 construct: expressed in transfected cells; host or cells: NIH3T3
T7 sequence (P20309 whole entry): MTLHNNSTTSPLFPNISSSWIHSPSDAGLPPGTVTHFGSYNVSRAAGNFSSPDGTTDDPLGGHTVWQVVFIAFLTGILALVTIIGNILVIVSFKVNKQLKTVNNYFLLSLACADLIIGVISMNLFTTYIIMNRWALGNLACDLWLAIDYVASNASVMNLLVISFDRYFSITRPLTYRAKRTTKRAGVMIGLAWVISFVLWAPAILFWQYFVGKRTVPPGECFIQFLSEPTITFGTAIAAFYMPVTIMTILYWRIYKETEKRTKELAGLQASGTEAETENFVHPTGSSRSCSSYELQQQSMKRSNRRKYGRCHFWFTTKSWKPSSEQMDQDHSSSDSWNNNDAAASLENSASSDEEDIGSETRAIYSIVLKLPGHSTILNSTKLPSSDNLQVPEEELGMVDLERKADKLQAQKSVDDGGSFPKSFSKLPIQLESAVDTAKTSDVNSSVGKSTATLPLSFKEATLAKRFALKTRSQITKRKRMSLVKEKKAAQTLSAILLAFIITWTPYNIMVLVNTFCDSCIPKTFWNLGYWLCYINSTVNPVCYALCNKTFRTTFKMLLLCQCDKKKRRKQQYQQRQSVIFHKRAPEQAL
The note with it: read-out: pEC50/pIC50 (converted). As to the method: as §1, §2

The target of a further assay is T8, endothelinB (Homo sapiens, UniProt P24530).
T8 construct: expressed in transfected cells; host or cells: NIH3T3
T8 sequence (P24530 27-442): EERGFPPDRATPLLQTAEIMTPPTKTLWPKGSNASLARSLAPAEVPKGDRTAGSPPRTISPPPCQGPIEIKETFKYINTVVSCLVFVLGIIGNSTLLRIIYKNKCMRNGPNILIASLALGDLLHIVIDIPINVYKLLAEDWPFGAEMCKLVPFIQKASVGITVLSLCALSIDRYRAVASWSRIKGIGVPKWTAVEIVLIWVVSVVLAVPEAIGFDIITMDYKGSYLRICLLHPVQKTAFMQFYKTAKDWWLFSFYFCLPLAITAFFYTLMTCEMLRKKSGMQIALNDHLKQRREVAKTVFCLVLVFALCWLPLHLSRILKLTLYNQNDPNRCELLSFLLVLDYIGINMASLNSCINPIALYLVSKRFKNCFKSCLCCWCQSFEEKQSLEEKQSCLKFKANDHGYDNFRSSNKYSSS
The conditions noted are these: agonist; read-out: pEC50/pIC50 (converted). The procedure:
as §1, §2

The next assay addresses T9, m1 (Homo sapiens, UniProt P11229).
T9 construct: expressed in transfected cells; host or cells: NIH3T3
T9 sequence (P11229 1-460): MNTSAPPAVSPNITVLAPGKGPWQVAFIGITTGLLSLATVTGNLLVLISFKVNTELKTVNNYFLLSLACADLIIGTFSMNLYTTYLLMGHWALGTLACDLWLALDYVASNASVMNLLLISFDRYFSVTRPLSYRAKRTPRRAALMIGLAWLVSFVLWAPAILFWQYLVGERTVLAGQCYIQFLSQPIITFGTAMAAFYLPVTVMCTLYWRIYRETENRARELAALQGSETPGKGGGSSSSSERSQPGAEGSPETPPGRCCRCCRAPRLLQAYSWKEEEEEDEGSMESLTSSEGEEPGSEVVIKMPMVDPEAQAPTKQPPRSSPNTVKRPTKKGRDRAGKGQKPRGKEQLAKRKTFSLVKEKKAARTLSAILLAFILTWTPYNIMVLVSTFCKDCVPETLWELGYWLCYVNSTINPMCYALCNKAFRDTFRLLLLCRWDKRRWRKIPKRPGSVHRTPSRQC
The conditions noted are these: read-out: pEC50/pIC50 (converted). The procedure: as §1, §2

T1 sequence (P25021 whole entry): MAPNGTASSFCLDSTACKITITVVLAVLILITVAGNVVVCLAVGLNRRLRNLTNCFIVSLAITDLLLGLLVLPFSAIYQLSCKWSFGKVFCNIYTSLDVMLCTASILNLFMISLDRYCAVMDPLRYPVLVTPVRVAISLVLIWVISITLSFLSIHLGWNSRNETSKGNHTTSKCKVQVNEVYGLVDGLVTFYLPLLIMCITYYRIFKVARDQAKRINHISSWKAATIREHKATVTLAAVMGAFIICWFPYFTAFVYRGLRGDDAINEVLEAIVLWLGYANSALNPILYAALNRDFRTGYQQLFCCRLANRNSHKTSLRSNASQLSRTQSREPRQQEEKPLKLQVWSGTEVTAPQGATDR
T3 sequence (P21918 whole entry): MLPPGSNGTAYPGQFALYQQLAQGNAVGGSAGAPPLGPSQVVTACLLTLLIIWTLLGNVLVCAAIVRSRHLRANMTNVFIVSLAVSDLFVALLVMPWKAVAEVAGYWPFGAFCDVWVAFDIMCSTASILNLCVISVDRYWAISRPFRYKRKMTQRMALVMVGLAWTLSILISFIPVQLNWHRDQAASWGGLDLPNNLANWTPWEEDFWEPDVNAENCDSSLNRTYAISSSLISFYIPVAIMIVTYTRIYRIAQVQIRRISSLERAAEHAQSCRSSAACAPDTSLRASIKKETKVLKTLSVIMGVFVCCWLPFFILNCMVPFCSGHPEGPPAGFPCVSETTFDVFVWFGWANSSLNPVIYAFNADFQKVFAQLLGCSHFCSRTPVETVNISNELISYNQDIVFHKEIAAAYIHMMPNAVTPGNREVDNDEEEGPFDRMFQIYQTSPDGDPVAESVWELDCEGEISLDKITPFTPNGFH
T2 sequence (P50406 whole entry, species assumed): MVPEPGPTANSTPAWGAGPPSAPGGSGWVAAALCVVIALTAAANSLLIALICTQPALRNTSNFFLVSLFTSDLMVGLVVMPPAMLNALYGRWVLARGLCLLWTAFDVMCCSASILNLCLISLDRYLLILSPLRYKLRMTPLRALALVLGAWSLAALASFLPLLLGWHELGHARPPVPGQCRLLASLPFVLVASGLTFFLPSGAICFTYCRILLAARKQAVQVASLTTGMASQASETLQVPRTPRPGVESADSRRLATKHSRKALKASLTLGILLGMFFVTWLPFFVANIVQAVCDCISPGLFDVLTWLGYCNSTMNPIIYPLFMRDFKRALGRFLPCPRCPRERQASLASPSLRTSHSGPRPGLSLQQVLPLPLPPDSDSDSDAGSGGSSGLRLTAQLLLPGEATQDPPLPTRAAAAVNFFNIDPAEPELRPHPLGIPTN
T4 sequence (P25103 whole entry): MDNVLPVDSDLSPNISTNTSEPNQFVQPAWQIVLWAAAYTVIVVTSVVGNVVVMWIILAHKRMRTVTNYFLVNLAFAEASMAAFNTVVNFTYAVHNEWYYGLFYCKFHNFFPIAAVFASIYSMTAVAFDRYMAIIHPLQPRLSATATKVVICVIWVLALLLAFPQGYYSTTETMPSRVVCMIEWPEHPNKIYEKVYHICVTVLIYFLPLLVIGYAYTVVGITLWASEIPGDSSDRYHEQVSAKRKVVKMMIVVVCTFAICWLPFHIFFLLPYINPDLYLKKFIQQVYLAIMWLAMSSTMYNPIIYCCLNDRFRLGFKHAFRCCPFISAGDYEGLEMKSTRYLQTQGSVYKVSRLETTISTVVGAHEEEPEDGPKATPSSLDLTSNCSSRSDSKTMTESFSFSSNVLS

In the case of `COc1ccc(CC(=O)N(Cc2ccc(C)cc2)C2CCN(C)CC2)cc1` [Example 50ELH27, 2-(4-Methoxyphenyl)-N-(4-methylbenzyl)-N-(1-methylpiperidin-4-yl)acetamide], the EC50 at Histamine 2 (agonist), on 5-HT6 (agonist), on D5 (agonist), on NK-1, on K-opiod and at alpha 2B (agonist) was more than 3.16 µM in each case. The EC50 at m3 (agonist), on endothelinB and on m1 (agonist) was more than 3.16 µM throughout. In addition, the IC50 is more than 3.16 µM at Histamine 2 (antagonist); 0.158 µM at 5-HT6 (Inv. Agonist); more than 3.16 µM at D5 (antagonist); more than 3.16 µM at alpha 2B (antagonist); more than 3.16 µM at m3 (antagonist); more than 3.16 µM on m1 (antagonist).

The values above are taken from patent US20080051429A1, “USE OF 4-AMINO-PIPERIDINES FOR TREATING SLEEP DISORDERS” (priority 2006, published 2008).
